This passage reports EC50 results from article PMC8071274 (International Journal of Molecular Sciences, 2021).

Molecules are shown by their SMILES. Where a SMILES comes first, the peptide text is derived from it. The star is where a group is joined. For = O=C*

The test system of the assay is differentiated HL-60 cells. It is filed as cell-based, human. As to conditions: 72 h. The procedure: HEK-293 cells (American Type Culture Collection, Manassas, VA, USA) were maintained in DMEM (Thermo Fisher Scientific, Waltham, MA, USA) containing 10% FBS (Thermo Fisher Scientific) in a humidified atmosphere at 5% CO2 and 37 °C. Human acute leukemia-derived HL-60 cells (RIKEN Cell Bank, Ibaraki, Japan) were cultured in RPMI-1640 medium (Thermo Fisher Scientific) containing 10% FBS in a humidified atmosphere at 5% CO2 and 37 °C. HL-60 cells were treated with 500 μM dibutyryl-cAMP (Sigma-Aldrich, St. Louis, MO, USA) for 72 h to differentiate the cells into neutrophilic/granulocytic cells as described elsewhere. The ability of MCT-2-related peptides to activate HL-60 cells differentiated into neutrophilic/granulocytic cells was evaluated by stimulation of β-hexosaminidase secretion from the cells. Briefly, differentiated HL-60 cells were washed 3 times with ice-cold HEPES-buffered Hank’s solution (HBHS; 10 mM HEPES, 136.9 mM NaCl, 5.4 mM KCl, 1.2 mM CaCl2, 0.44 mM KH2PO4, 0.49 mM MgCl2, 0.41 mM MgSO4, 0.34 mM Na2HPO4, 5.5 mM glucose, 4.2 mM NaHCO3, and 0.1% BSA, pH 7.4). The cells were resuspended in HBHS at a density of 5.6 × 10^6 cells/mL, and DNase I (Sigma-Aldrich) and cytochalasin B (Sigma-Aldrich) were each added at a final concentration of 5 μg/mL. The cell suspension in each tube (5.0 × 10^5 cells/90 μL) was preincubated at 37 °C for 10 min and stimulated with 10 μL synthetic peptide solution at 37 °C for 10 min. The inhibitory effects of inhibitors against FPR1 [CysH (Sigma-Aldrich)] and FPR2 [PBP10 (Tocris Bioscience, Bristol, UK)] on β-hexosaminidase release induced by MCT-2 and its derivatives were also evaluated in the differentiated HL-60 cells; each cell suspension prepared as above (90 μL) was transferred to a tube (5.0 × 10^5 cells/tube) with 5 μL inhibitor solution for FPR1 (CysH) or FPR2 (PBP10). Each tube was then preincubated at 37 °C for 10 min and stimulated with 5 μL synthetic peptide solution at 37 °C for 10 min. After stimulation, 200 μL ice-cold reaction quenching buffer (25 mM Tris, 123 mM NaCl, and 2.7 mM KCl, pH 7.4) was added to each cell suspension to stop the reaction. Thereafter, these tubes were centrifuged at 4 °C and 2300× g for 1 min, and each supernatant was transferred into a new tube. β-Hexosaminidase activity in the supernatant was measured as described previously. Briefly, 90 μL supernatant was transferred to each well of a 96-well microtiter plate, and 60 μL of a substrate solution for β-hexosaminidase [10 mM p-nitrophenyl N-acetyl-β-D-glucosaminide (Sigma-Aldrich), 40 mM citrate, and 70 mM NaHPO4, pH 4.5] was added to initiate the enzyme reaction. After incubation of the plate at 37 °C for 1 h, 100 μL of 400 mM glycine (pH 10.7) was added to stop the reaction. The absorbance at 415 nm for the resulting p-nitrophenol and at 490 nm for the reference was measured using a microtiter plate reader (Viento XS; BioTek Instruments, Winooski, VT, USA). The ability of each peptide to induce β-hexosaminidase release was expressed as a percentage of enzyme secretion promoted by 10 μM MCT-2(1–15) that induced the maximum response for the elucidation of full or partial agonists to the activity of MCT-2(1–15) (Figure 2 and Figure 4, Table 2) or a percentage of the total enzyme activity, which was the enzyme activity released after disruption of the cells with 0.05% Triton X-100 (Figure 3).
By EC50 is commonly meant the concentration at which the effect is half-maximal. A lower EC50 goes with a more potent agent. For `CC[C@H](C)[C@H](NC(=O)[C@H](CC(C)C)NC(=O)[C@H](CCCCN)NC(=O)[C@H](CCSC)NC(=O)[C@H](CC(C)C)NC(=O)[C@@H]1CCCN1C(=O)[C@H](CC(N)=O)NC(=O)[C@@H](NC(=O)[C@H](CCCCN)NC(=O)[C@H](CCCNC(=N)N)NC(=O)[C@H](CCSC)NC(=O)[C@H](C)NC(=O)[C@@H](NC(=O)[C@H](CCSC)NC=O)[C@@H](C)O)[C@@H](C)CC)C(=O)N[C@@H](CC(N)=O)C(=O)O` [[Ala^3]MCT-2] (For-MTAMRKINPLMKLIN-OH), the EC50 was determined as 16.3 ± 0.29 nM.

As to `CC[C@H](C)[C@H](NC(=O)[C@H](CCCCN)NC(=O)[C@H](CCCNC(=N)N)NC(=O)[C@H](CCSC)NC(=O)[C@@H]1CCCN1C(=O)[C@@H](NC(=O)[C@H](CCSC)NC=O)[C@@H](C)O)C(=O)N[C@@H](CC(N)=O)C(=O)N1CCC[C@H]1C(=O)N[C@@H](CC(C)C)C(=O)N[C@@H](CCSC)C(=O)N[C@@H](CCCCN)C(=O)N[C@@H](CC(C)C)C(=O)N[C@@H](C)C(=O)N[C@@H](CC(N)=O)C(=O)O` [[Ala^14]MCT-2] (For-MTPMRKINPLMKLAN-OH), the EC50 is 76.7 ± 11.9 nM.

`CC[C@H](C)[C@H](NC(=O)[C@H](CC(C)C)NC(=O)[C@H](CCCCN)NC(=O)[C@H](CCSC)NC(=O)[C@H](CC(C)C)NC(=O)[C@@H]1CCCN1C(=O)[C@H](CC(N)=O)NC(=O)[C@@H](NC(=O)[C@H](CCCCN)NC(=O)[C@H](CCCNC(=N)N)NC(=O)[C@H](CCSC)NC(=O)[C@@H]1CCCN1C(=O)[C@@H](NC(=O)[C@H](C)NC=O)[C@@H](C)O)[C@@H](C)CC)C(=O)N[C@@H](CC(N)=O)C(=O)O` [[Ala^1]MCT-2] (For-ATPMRKINPLMKLIN-OH) registered a half-maximal effective concentration (EC50) of over 10000 nM.

`CC[C@H](C)[C@H](NC(=O)[C@H](CC(C)C)NC(=O)[C@H](CCCCN)NC(=O)[C@H](CCSC)NC(=O)[C@H](CC(C)C)NC(=O)[C@@H]1CCCN1C(=O)[C@H](CC(N)=O)NC(=O)[C@@H](NC(=O)[C@H](CCCCN)NC(=O)[C@H](C)NC(=O)[C@H](CCSC)NC(=O)[C@@H]1CCCN1C(=O)[C@@H](NC(=O)[C@H](CCSC)NC=O)[C@@H](C)O)[C@@H](C)CC)C(=O)N[C@@H](CC(N)=O)C(=O)O` [[Ala^5]MCT-2] (For-MTPMAKINPLMKLIN-OH) came in with a half-maximal effective concentration (EC50) of 61.3 ± 0.58 nM.

With `CSCC[C@H](NC=O)C(=O)N[C@H](C(=O)N1CCC[C@H]1C(=O)N[C@@H](CCSC)C(=O)N[C@@H](CCCNC(=N)N)C(=O)N[C@@H](CCCCN)C(=O)O)[C@@H](C)O` [MCT-2(1–6)] (For-MTPMRK-OH), the midpoint of the response, the EC50, lay at 203000 nM.

Turning to `CC[C@H](C)[C@H](NC(=O)[C@H](CC(C)C)NC(=O)[C@H](CCCCN)NC(=O)[C@H](CCSC)NC(=O)[C@H](C)NC(=O)[C@@H]1CCCN1C(=O)[C@H](CC(N)=O)NC(=O)[C@@H](NC(=O)[C@H](CCCCN)NC(=O)[C@H](CCCNC(=N)N)NC(=O)[C@H](CCSC)NC(=O)[C@@H]1CCCN1C(=O)[C@@H](NC(=O)[C@H](CCSC)NC=O)[C@@H](C)O)[C@@H](C)CC)C(=O)N[C@@H](CC(N)=O)C(=O)O` [[Ala^10]MCT-2] (For-MTPMRKINPAMKLIN-OH), the EC50 was 73 ± 13.3 nM.

In the case of `CC[C@H](C)[C@H](NC(=O)[C@H](CC(C)C)NC(=O)[C@H](CCCCN)NC(=O)[C@H](CCSC)NC(=O)[C@H](CC(C)C)NC(=O)[C@@H]1CCCN1C(=O)[C@H](CC(N)=O)NC(=O)[C@@H](NC(=O)[C@H](CCCCN)NC(=O)[C@H](CCCNC(=N)N)NC(=O)[C@H](CCSC)NC(=O)[C@@H]1CCCN1C(=O)[C@H](C)NC(=O)[C@H](CCSC)NC=O)[C@@H](C)CC)C(=O)N[C@@H](CC(N)=O)C(=O)O` [[Ala^2]MCT-2] (For-MAPMRKINPLMKLIN-OH), it took 0.61 ± 0.07 nM to reach a half-maximal effect (EC50).

As to `CC[C@H](C)[C@H](NC(=O)[C@H](CCCCN)NC(=O)[C@H](CCCNC(=N)N)NC(=O)[C@H](CCSC)NC(=O)[C@@H]1CCCN1C(=O)[C@@H](NC(=O)[C@H](CCSC)NC=O)[C@@H](C)O)C(=O)N[C@@H](C)C(=O)N1CCC[C@H]1C(=O)N[C@@H](CC(C)C)C(=O)N[C@@H](CCSC)C(=O)N[C@@H](CCCCN)C(=O)N[C@@H](CC(C)C)C(=O)N[C@H](C(=O)N[C@@H](CC(N)=O)C(=O)O)[C@@H](C)CC` [[Ala^8]MCT-2] (For-MTPMRKIAPLMKLIN-OH), a half-maximal effect (EC50) was put at 31 ± 3.97 nM.

In turn, `CC[C@H](C)[C@H](NC(=O)[C@H](CCCCN)NC(=O)[C@H](CCCNC(=N)N)NC(=O)[C@H](CCSC)NC(=O)[C@@H]1CCCN1C(=O)[C@@H](NC(=O)[C@H](CCSC)NC=O)[C@@H](C)O)C(=O)N[C@@H](CC(N)=O)C(=O)N1CCC[C@H]1C(=O)N[C@@H](CC(C)C)C(=O)N[C@@H](CCSC)C(=O)N[C@@H](CCCCN)C(=O)N[C@@H](CC(C)C)C(=O)O` [MCT-2(1–13)] (For-MTPMRKINPLMKL-OH) came in with an EC50 of 186 ± 33.6 nM.

`CC[C@H](C)[C@H](NC(=O)[C@H](CC(C)C)NC(=O)[C@H](CCCCN)NC(=O)[C@H](CCSC)NC(=O)[C@H](CC(C)C)NC(=O)[C@@H]1CCCN1C(=O)[C@H](CC(N)=O)NC(=O)[C@H](C)NC(=O)[C@H](CCCCN)NC(=O)[C@H](CCCNC(=N)N)NC(=O)[C@H](CCSC)NC(=O)[C@@H]1CCCN1C(=O)[C@@H](NC(=O)[C@H](CCSC)NC=O)[C@@H](C)O)C(=O)N[C@@H](CC(N)=O)C(=O)O` [[Ala^7]MCT-2] (For-MTPMRKANPLMKLIN-OH): the EC50 was determined as 94.7 ± 3.21 nM.

Regarding `CC[C@H](C)[C@H](NC(=O)[C@H](CC(C)C)NC(=O)[C@H](CCCCN)NC(=O)[C@H](CCSC)NC(=O)[C@H](CC(C)C)NC(=O)[C@@H]1CCCN1C(=O)[C@H](CC(N)=O)NC(=O)[C@@H](NC(=O)[C@H](CCCCN)NC(=O)[C@H](CCCNC(=N)N)NC(=O)[C@H](CCSC)NC(=O)[C@@H]1CCCN1C(=O)[C@@H](NC(=O)[C@H](CCSC)NC=O)[C@@H](C)O)[C@@H](C)CC)C(=O)N[C@@H](C)C(=O)O` [[Ala^15]MCT-2] (For-MTPMRKINPLMKLIA-OH), a half-maximal response (EC50) required 29.3 ± 1.49 nM.

Consider `CC[C@H](C)[C@H](NC(=O)[C@H](C)NC(=O)[C@H](CCCNC(=N)N)NC(=O)[C@H](CCSC)NC(=O)[C@@H]1CCCN1C(=O)[C@@H](NC(=O)[C@H](CCSC)NC=O)[C@@H](C)O)C(=O)N[C@@H](CC(N)=O)C(=O)N1CCC[C@H]1C(=O)N[C@@H](CC(C)C)C(=O)N[C@@H](CCSC)C(=O)N[C@@H](CCCCN)C(=O)N[C@@H](CC(C)C)C(=O)N[C@H](C(=O)N[C@@H](CC(N)=O)C(=O)O)[C@@H](C)CC` [[Ala^6]MCT-2] (For-MTPMRAINPLMKLIN-OH), for which it took 64 ± 3 nM to reach a half-maximal effect (EC50).

Compound `CC[C@H](C)[C@H](NC(=O)[C@H](CC(C)C)NC(=O)[C@H](C)NC(=O)[C@H](CCSC)NC(=O)[C@H](CC(C)C)NC(=O)[C@@H]1CCCN1C(=O)[C@H](CC(N)=O)NC(=O)[C@@H](NC(=O)[C@H](CCCCN)NC(=O)[C@H](CCCNC(=N)N)NC(=O)[C@H](CCSC)NC(=O)[C@@H]1CCCN1C(=O)[C@@H](NC(=O)[C@H](CCSC)NC=O)[C@@H](C)O)[C@@H](C)CC)C(=O)N[C@@H](CC(N)=O)C(=O)O` [[Ala^12]MCT-2] (For-MTPMRKINPLMALIN-OH) returned a 50% effective concentration (EC50) of 12.3 ± 0.29 nM.

In turn, `CC[C@H](C)[C@H](NC(=O)[C@H](CCCCN)NC(=O)[C@H](CCCNC(=N)N)NC(=O)[C@H](CCSC)NC(=O)[C@@H]1CCCN1C(=O)[C@@H](NC(=O)[C@H](CCSC)NC=O)[C@@H](C)O)C(=O)O` [MCT-2(1–7)] (For-MTPMRKI-OH) displayed an EC50 of 35500 nM.

Compound `CC[C@H](C)[C@H](NC(=O)[C@H](CCCCN)NC(=O)[C@H](CCCNC(=N)N)NC(=O)[C@H](CCSC)NC(=O)[C@@H]1CCCN1C(=O)[C@@H](NC(=O)[C@H](CCSC)NC=O)[C@@H](C)O)C(=O)N[C@@H](CC(N)=O)C(=O)O` [MCT-2(1–8)] (For-MTPMRKIN-OH) registered a 50% effective concentration (EC50) of 41300 nM.
